Laboratory results published in patent US10961510B2, “Exosome active formulation for promoting endothelial cell angiogenesis, and preparation method and application” (INSTITUTE OF MICROCIRCULATION of the CHINESE ACADEMY OF …, priority 2018, dated 2021).

Test system: human umbilical vein endothelial cells (HUVECs)
Assay: Angiogenesis (tube formation) ability of HUVECs on BME-coated 96-well plate, total branching length by Image J
Assay type: cell-based
Conditions: 10 ng/mL TNF-α alone, 18 hours intervention, compared with the Con group, P=0.002
Procedure: The angiogenesis ability of human umbilical vein endothelial cells (HUVECs) was detected by using a 96-well plate coated with a basement membrane extract (BME). 50 μL of a BME solution was added in each well, which was placed in a cell incubator at 37° C. for 30 minutes to form a jelly substance. 10000 endothelial cells were inoculated in each well, and the volume of the endothelial cell culture medium was 100 μL. […]
According to the real-time observation for the angiogenesis morphology, when each of the above groups was subjected to intervention treatment for 18 hours, the angiogenesis morphology of each group reached a status for the optimum observation and quantitation. […]

TNF-α was tested, and the “endothelial cell angiogenesis (total branching length of each view field)” value was “significantly inhibit endothelial cell angiogenesis”.
